Columns and labels:
[1] = molecular target: T1, PI3Kalpha (PI3Ka) (Homo sapiens, UniProt P42336); experiment: kinobeads assay, PI3Kalpha; format: binding; conditions: kinobeads assay, Table 6; for IC50: read-out: Inhibition values (IC50) PI3Ka
T1 construct: endogenous in cells; host or cells: cell lysate
Procedure: (§1) The kinobeads assay was performed as a competitive binding assay in which test compounds were added directly into a cell lysate. Test compounds (at various concentrations) and the affinity matrix (beads with immobilized phenylmorpholin-chromen ligand) were added to cell lysate aliquots and allowed to bind to the proteins contained in the lysate sample. After the incubation time the beads with captured proteins were separated from the lysate. Bound proteins were then eluted and the presence of kinases was detected and quantified using a multiplexed immunodetection format. Dose response curves for individual kinases were generated and IC50 values calculated.
(§2) The effect of the compounds on the kinases PI3Kalpha (PI3Ka), PI3 Kbeta (PI3 Kb) and PI3 Kgamma (PI3 Kg) were tested in the kinobeads assay as described (WO-A 2009/098021).

[2] = molecular target: T2, mTOR (Homo sapiens, UniProt P42345); experiment: mTOR kinobeads assay (competitive binding in Jurkat cell lysate, immunodetection); conditions: kinobeads assay, Table 6; read-out: Inhibition values (IC50) mTOR
T2 construct: endogenous in cells; host or cells: Jurkat, clone E6-1 (ATCC TIB-152) cell lysate
Procedure: The compounds of the present invention as described were tested in the mTOR kinobeads assay as described below. […] After the incubation time the beads with captured proteins were separated from the lysate. Bound proteins were then eluted and the presence of mTOR, PI3K delta (PI3 Kd) and DNA-dependent protein kinase (DNA-PK) was detected and quantified using a specific antibody in a dot blot procedure and the Odyssey infrared detection system.
as §1
(§3) 5×DP buffer: 250 mM Tris-HCl pH 7.4, 25% Glycerol, 7.5 mM MgCl2, 750 mM NaCl, 5 mM Na3VO4, filter the 5×-lysis buffer through 0.22 μm filter and store in aliquots at −80° C. The 5×DP buffer is diluted to 1×DP buffer containing 1 mM DTT and 25 mM NaF.
(§4) Stock solutions of test compounds were prepared in DMSO. In a 96 well plate 30 μl solution of diluted test compounds at 5 mM in DMSO were prepared. Starting with this solution a 1:3 dilution series (9 steps) was prepared. For control experiments (no test compound) a buffer containing 2% DMSO was used.
Jurkat cells were homogenized in a Potter S homogenizer in lysis buffer: 50 mM Tris-HCl, 0.8% NP40, 5% glycerol, 150 mM NaCl, 1.5 mM MgCl2, 25 mM NaF, 1 mM sodium vanadate, 1 mM DTT, pH 7.5. […] The material was dounced 10 times using a mechanized POTTER S, transferred to 50 ml falcon tubes, incubated for 30 minutes on ice and spun down for 10 min at 20,000 g at 4° C. (10,000 rpm in Sorvall SLA600, precooled). […] (33.500 rpm in Ti50.2, precooled). The supernatant was transferred again to a fresh 50 ml falcon tube, the protein concentration was determined by a Bradford assay (BioRad) and samples containing 50 mg of protein per aliquot were prepared. The samples were immediately used for experiments or frozen in liquid nitrogen and stored frozen at −80° C.
Jurkat cell lysate (approximately 50 mg protein per plate) was thawed in a water bath at room temperature and then kept on ice. […] The diluted cell lysate was stored on ice.
Plates were sealed and incubated for two hours in a cold room on a Thermoxer with shaking (750 rpm). Afterwards the plate was washed twice with 230 μl washing buffer (1×DP 0.4% NP40). […] The eluate was frozen quickly at −80° C. and stored at −20° C.
The kinases in the eluates were detected and quantified by spotting on Nitrocellulose membranes and using a first antibody directed against the kinase of interest and a fluorescently labeled secondary antibody (anti-mouse or anti-rabbit IRDye™ antibodies from Rockland).
Afterwards the membrane was washed three times for 10 minutes with PBS buffer containing 0.1% Tween 20 at room temperature. […] Afterwards the membrane was washed three times for 10 minutes each with 1×PBS buffer containing 0.1% Tween 20 at room temperature. Then the membrane was rinsed once with PBS buffer to remove residual Tween 20. The membrane was kept in PBS buffer at 4° C. and then scanned with the Odyssey instrument. Fluorescence signals were recorded and analysed according to the instructions of the manufacturer.

[3] = molecular target: T3, DNA-dependent protein kinase (DNA-PK) (Homo sapiens, UniProt P78527); experiment: kinobeads assay, DNA-PK; format: binding; conditions: kinobeads assay, Table 6; read-out: Inhibition values (IC50) DNAPK
T3 construct: endogenous in cells; host or cells: Jurkat, clone E6-1 (ATCC TIB-152) cell lysate
Procedure: (§5) The compounds of the present invention as described were tested in the mTOR kinobeads assay as described below. Briefly, test compounds (at various concentrations) and the affinity matrix with the immobilized phenylmorpholin-chromen ligand (8-(4-aminomethyl-phenyl)-2-morpholin-4-yl-chromen-4-one) were added to cell lysate aliquots and allowed to bind to the proteins in the lysate sample. After the incubation time the beads with captured proteins were separated from the lysate. Bound proteins were then eluted and the presence of mTOR, PI3K delta (PI3 Kd) and DNA-dependent protein kinase (DNA-PK) was detected and quantified using a specific antibody in a dot blot procedure and the Odyssey infrared detection system. Kinobeads assays for PI3K (WO-A 2008/015013) and for kinase selectivity profiling (WO 2006/134056) have been previously described.
as §1
(§6) The affinity matrix (beads with immobilized phenylmorpholin-chromen ligand) was washed two times with 15 ml of 1×DP buffer containing 0.2% NP40 (IGEPAL® CA-630, Sigma, #13021) and then resupended in 5.5 ml of 1×DP buffer containing 0.2% NP40 (10% beads slurry).
as §3
as §4, with “used. Compound CZC00018052 served as a positive control (PI-103; Calbiochem catalogue number 528100).” for “used.”
(§7) Jurkat cells (ATCC catalogue number TIB-152 Jurkat, clone E6-1) were grown in 1 liter Spinner flasks (Integra Biosciences, #182101) in suspension in RPMI 1640 medium (Invitrogen, #21875-034) supplemented with 10% Fetal Bovine Serum (Invitrogen) at a density between 0.15×10^6 and 1.2×10^6 cells/ml. Cells were harvested by centrifugation, washed once with 1×PBS buffer (Invitrogen, #14190-094) and cell pellets were frozen in liquid nitrogen and subsequently stored at −80° C.
(§8) Jurkat cells were homogenized in a Potter S homogenizer in lysis buffer: 50 mM Tris-HCl, 0.8% NP40, 5% glycerol, 150 mM NaCl, 1.5 mM MgCl2, 25 mM NaF, 1 mM sodium vanadate, 1 mM DTT, pH 7.5. One complete EDTA-free tablet (protease inhibitor cocktail, Roche Diagnostics, 1873580) per 25 ml buffer was added. The material was dounced 10 times using a mechanized POTTER S, transferred to 50 ml falcon tubes, incubated for 30 minutes on ice and spun down for 10 min at 20,000 g at 4° C. (10,000 rpm in Sorvall SLA600, precooled). The supernatant was transferred to an ultracentrifuge (UZ)-polycarbonate tube (Beckmann, 355654) and spun for 1 hour at 100.000 g at 4° C. (33.500 rpm in Ti50.2, precooled). The supernatant was transferred again to a fresh 50 ml falcon tube, the protein concentration was determined by a Bradford assay (BioRad) and samples containing 50 mg of protein per aliquot were prepared. The samples were immediately used for experiments or frozen in liquid nitrogen and stored frozen at −80° C. […]

[4] = molecular target: T4, PI3 Kgamma (PI3 Kg) (Homo sapiens, UniProt P48736); experiment: kinobeads assay, PI3Kgamma; format: binding; conditions: kinobeads assay, Table 6; read-out: Inhibition values (IC50) PI3Kg
T4 construct: endogenous in cells; host or cells: cell lysate
Procedure: as §1, §2

[5] = molecular target: T5, PI3K delta (PI3 Kd) (Homo sapiens, UniProt O00329); experiment: kinobeads assay, PI3K delta; format: binding; conditions: kinobeads assay, Table 6; read-out: Inhibition values (IC50) PI3Kd
T5 construct: endogenous in cells; host or cells: Jurkat, clone E6-1 (ATCC TIB-152) cell lysate
Procedure: as §5, §1, §6, §3
as §4, with “used. Compound CZC00018052 served as a positive control (PI-103; Calbiochem catalogue number 528100).” for “used.”
as §7, §8

[6] = molecular target: T6, PI3 Kbeta (PI3 Kb) (Homo sapiens, UniProt P42338); experiment: kinobeads assay, PI3Kbeta; format: binding; conditions: kinobeads assay, Table 6; read-out: Inhibition values (IC50) PI3Kb
T6 construct: endogenous in cells; host or cells: cell lysate
Procedure: as §1, §2

T6 sequence (P42338 whole entry): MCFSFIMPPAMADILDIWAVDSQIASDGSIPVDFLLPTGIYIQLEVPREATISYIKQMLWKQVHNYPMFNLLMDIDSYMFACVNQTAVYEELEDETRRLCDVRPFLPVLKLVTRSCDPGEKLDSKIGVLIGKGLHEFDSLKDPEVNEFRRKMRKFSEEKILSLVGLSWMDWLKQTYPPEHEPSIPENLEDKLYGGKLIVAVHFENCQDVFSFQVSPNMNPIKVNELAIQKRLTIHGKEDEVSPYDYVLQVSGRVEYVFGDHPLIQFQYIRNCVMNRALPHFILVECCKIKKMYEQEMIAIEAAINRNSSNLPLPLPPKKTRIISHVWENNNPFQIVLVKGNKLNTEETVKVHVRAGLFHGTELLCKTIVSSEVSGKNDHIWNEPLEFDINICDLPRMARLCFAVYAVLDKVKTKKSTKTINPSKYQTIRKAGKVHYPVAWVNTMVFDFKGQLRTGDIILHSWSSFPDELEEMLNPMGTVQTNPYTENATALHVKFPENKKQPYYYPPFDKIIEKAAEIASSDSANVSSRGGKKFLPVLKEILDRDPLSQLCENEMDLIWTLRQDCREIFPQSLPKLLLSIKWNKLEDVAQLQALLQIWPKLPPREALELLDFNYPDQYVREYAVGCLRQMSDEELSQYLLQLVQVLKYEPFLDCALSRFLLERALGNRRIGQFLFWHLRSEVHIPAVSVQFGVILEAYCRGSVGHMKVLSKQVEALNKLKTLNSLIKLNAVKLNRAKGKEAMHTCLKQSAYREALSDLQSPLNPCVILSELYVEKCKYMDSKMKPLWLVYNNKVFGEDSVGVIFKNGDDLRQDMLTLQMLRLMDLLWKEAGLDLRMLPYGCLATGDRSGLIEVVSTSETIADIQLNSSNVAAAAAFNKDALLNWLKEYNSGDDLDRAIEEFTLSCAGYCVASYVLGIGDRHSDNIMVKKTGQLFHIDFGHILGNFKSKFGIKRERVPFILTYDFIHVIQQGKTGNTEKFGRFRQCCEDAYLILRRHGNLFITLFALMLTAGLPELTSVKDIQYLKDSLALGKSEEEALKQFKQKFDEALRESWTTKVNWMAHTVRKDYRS
T6 sequence (P27986 whole entry partner): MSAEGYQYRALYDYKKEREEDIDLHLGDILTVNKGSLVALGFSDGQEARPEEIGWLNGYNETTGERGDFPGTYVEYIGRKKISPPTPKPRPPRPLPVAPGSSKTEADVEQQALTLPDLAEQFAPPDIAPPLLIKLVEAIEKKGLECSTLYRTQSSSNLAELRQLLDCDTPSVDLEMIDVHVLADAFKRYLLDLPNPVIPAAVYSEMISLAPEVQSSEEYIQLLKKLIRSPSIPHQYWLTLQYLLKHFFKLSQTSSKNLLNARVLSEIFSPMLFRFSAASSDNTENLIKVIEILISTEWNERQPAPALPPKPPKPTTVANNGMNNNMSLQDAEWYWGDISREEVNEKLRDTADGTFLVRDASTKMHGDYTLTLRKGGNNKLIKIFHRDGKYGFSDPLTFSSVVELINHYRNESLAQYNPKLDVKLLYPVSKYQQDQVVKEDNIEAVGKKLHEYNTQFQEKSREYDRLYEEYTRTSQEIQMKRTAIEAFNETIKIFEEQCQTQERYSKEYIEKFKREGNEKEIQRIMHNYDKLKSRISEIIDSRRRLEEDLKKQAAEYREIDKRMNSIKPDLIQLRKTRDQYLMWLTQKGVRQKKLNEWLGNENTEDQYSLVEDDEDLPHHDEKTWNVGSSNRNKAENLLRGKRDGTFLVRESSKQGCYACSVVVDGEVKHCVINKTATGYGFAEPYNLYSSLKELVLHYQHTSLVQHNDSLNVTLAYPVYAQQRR
T5 sequence (O00329 whole entry): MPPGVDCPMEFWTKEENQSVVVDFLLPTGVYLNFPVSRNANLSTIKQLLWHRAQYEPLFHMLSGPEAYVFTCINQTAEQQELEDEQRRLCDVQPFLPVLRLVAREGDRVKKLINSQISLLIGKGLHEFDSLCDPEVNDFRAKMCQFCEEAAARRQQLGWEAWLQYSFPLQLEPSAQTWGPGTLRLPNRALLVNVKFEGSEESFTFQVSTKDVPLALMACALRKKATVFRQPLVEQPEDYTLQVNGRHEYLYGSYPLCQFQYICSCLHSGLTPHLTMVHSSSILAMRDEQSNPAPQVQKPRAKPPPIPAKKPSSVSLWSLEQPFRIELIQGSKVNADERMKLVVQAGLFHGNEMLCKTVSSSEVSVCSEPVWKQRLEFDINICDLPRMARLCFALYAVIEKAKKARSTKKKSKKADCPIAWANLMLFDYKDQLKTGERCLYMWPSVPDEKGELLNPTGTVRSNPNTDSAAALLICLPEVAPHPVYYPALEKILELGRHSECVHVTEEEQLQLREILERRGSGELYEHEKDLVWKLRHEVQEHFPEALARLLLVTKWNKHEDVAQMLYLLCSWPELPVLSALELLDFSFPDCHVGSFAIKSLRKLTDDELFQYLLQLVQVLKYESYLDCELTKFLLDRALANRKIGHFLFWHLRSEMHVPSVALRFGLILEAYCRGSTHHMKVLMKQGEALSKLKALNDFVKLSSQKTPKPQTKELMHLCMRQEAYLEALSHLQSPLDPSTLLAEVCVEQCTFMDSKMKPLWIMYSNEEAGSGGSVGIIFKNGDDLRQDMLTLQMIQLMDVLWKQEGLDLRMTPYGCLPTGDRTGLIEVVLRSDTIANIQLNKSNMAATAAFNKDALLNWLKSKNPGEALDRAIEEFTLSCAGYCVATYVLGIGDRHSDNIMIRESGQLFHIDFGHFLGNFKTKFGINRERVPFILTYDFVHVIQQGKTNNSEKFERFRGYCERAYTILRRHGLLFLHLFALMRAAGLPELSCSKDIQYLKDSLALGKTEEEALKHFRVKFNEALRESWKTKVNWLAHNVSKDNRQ
T5 sequence (P27986 whole entry partner): as the sequence (P27986 whole entry partner) above
T4 sequence (P48736 whole entry): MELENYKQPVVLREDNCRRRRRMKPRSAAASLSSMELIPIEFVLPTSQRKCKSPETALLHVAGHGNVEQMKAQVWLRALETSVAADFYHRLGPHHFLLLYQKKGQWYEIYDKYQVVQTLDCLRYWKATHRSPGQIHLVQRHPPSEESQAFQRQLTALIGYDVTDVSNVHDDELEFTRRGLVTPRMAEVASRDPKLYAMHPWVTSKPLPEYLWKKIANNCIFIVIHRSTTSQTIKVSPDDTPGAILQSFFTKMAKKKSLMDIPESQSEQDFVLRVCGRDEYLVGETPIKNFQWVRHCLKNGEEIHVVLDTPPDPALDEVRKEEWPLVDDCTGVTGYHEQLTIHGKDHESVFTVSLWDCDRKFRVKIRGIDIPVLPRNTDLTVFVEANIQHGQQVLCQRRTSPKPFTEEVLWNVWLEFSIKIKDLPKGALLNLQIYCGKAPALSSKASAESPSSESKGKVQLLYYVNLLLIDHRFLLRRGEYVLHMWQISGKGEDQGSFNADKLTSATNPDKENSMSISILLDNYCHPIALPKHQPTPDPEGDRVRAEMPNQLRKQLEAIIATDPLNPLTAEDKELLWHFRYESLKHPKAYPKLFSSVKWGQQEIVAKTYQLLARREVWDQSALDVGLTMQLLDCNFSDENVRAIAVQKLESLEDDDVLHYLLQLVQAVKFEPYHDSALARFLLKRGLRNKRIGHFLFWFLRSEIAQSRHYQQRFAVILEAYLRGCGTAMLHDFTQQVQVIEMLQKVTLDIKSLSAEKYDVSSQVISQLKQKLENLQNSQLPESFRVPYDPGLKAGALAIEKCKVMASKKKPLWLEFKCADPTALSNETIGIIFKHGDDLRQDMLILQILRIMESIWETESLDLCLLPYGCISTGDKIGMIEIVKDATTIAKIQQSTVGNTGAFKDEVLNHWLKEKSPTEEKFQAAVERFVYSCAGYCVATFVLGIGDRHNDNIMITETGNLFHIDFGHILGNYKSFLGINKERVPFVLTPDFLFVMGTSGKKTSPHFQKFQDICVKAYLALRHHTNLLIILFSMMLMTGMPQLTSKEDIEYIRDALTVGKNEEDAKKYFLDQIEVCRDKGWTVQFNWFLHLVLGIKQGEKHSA
T1 sequence (P42336 whole entry): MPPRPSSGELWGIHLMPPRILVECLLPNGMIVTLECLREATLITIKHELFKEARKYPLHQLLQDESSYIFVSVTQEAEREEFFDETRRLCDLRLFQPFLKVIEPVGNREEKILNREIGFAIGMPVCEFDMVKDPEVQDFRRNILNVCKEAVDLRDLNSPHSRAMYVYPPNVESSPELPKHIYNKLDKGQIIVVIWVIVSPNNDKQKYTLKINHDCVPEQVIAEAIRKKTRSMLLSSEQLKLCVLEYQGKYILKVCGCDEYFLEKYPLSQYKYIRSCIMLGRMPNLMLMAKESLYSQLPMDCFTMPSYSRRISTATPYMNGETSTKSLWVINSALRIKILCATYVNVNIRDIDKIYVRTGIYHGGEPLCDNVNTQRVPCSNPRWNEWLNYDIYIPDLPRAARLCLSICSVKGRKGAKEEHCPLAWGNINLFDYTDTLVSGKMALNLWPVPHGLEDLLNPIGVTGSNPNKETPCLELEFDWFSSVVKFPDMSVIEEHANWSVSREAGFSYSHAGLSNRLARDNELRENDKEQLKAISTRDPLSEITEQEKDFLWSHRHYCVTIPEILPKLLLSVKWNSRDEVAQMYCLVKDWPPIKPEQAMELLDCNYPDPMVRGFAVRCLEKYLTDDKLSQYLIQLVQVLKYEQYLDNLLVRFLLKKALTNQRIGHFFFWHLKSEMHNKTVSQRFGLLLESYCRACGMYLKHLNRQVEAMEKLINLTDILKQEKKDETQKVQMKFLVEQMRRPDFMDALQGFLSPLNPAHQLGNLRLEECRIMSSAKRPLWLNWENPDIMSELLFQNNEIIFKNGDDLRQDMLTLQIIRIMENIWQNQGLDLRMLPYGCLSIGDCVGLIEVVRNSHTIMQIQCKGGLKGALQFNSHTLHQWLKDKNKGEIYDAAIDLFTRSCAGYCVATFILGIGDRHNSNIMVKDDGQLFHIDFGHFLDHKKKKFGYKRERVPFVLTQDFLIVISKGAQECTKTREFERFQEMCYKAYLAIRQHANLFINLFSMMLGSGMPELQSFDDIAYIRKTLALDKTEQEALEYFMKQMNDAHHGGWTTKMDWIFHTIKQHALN
T1 sequence (P27986 whole entry partner): as the sequence (P27986 whole entry partner) above

| Inhibition values (IC50) PI3Ka [1] | IC50 [2] [µM] | IC50 [3] [µM] | IC50 [4] [µM] | IC50 [5] [µM] | IC50 [6] [µM] | IC50 [1] [µM] | Structure (SMILES) |
| --- | --- | --- | --- | --- | --- | --- | --- |
| D (D >10 μM) | 0.1 to 1 | > 10 | > 10 | > 10 | > 10 |  | CCOC(=O)N1Cc2nc(-c3ccc(NC(=O)Nc4cccnc4)cc3)nc(N3CCOC[C@@H]3C)c2C1 [Example 118, (S)-ethyl 4-(3-methylmorpholino)-2-(4-(3-(pyridin-3-yl)ureido)phenyl)-5H-pyrrolo[3,4-d]pyrimidine-6(7H)-carboxylate] |
| D (D >10 μM) | 0.1 to 1 | > 10 | > 10 | > 10 | > 10 |  | CCOC(=O)N1Cc2nc(-c3ccc(NC(=O)Nc4ccc(CO)cc4)cc3)nc(N3CCOC[C@@H]3C)c2C1 [Example 119, (S)-ethyl 2-(4-(3-(4-(hydroxymethyl)phenyl)ureido)phenyl)-4-(3-methylmorpholino)-5H-pyrrolo[3,4-d]pyrimidine-6(7H)-carboxylate] |
|  | 0.1 to 1 | > 10 | > 10 | 1 to 10 | > 10 | 1 to 10 | CCOC(=O)N1Cc2nc(-c3ccc(NC(=O)NCCNC(C)=O)cc3)nc(N3CCOC[C@@H]3C)c2C1 [Example 124, (S)-ethyl 2-(4-(3-(2-acetamidoethyl)ureido)phenyl)-4-(3-methylmorpholino)-5H-pyrrolo[3,4-d]pyrimidine-6(7H)-carboxylate] |
| B (B >0.1 μM < 1 μM) | 0.1 to 1 | > 10 | 1 to 10 | 0.1 to 1 | 1 to 10 |  | CCOC(=O)N1Cc2nc(-c3ccc(NC(=O)NCC(=O)NC)cc3)nc(N3CCOC[C@@H]3C)c2C1 [Example 125, (S)-ethyl 2-(4-(3-(2-(methylamino)-2-oxoethyl)ureido)phenyl)-4-(3-methylmorpholino)-5H-pyrrolo[3,4-d]pyrimidine-6(7H)-carboxylate] |
|  | < 0.1 | > 10 | > 10 | 1 to 10 | 1 to 10 | 1 to 10 | CC(=O)NCCCC(=O)N1Cc2nc(-c3ccc(NC(=O)NC4CC4)cc3)nc(N3CCOC[C@@H]3C)c2C1 [Example 133, (S)—N-(4-(2-(4-(3-cyclopropylureido)phenyl)-4-(3-methylmorpholino)-5H-pyrrolo[3,4-d]pyrimidin-6(7H)-yl)-4-oxobutyl)acetamide] |

The remaining lines, values behind:

| Structure (SMILES) | Inhibition values (IC50) PI3Ka [1] | IC50 [2] [µM] | IC50 [3] [µM] | IC50 [4] [µM] | IC50 [5] [µM] | IC50 [6] [µM] | IC50 [1] [µM] |
| --- | --- | --- | --- | --- | --- | --- | --- |
| CCNC(=O)Nc1ccc(-c2nc3c(c(N4CCOC[C@@H]4C)n2)CN(C2CCN(C(C)=O)CC2)C3)cc1F [Example 117, (S)-1-(4-(6-(1-acetylpiperidin-4-yl)-4-(3-methylmorpholino)-6,7-dihydro-5H-pyrrolo[3,4-d]pyrimidin-2-yl)-2-fluorophenyl)-3-ethylurea] | D (D >10 μM) | 0.1 to 1 | > 10 | > 10 | > 10 | > 10 |  |
| CCNC(=O)Nc1ccc(-c2nc3c(c(N4CCOC[C@@H]4C)n2)CN(C(=O)C2CCN(C(C)=O)CC2)C3)cc1F [Example 123, (S)-1-(4-(6-(1-acetylpiperidine-4-carbonyl)-4-(3-methylmorpholino)-6,7-dihydro-5H-pyrrolo[3,4-d]pyrimidin-2-yl)-2-fluorophenyl)-3-ethylurea] | D (D >10 μM) | 0.1 to 1 | > 10 | > 10 | > 10 | > 10 |  |
| CCNC(=O)Nc1ccc(-c2nc3c(c(N4CCOC[C@@H]4C)n2)CN(C(=O)C2CCNCC2)C3)cc1F [Example 126, (S)-1-ethyl-3-(2-fluoro-4-(4-(3-methylmorpholino)-6-(piperidine-4-carbonyl)-6,7-dihydro-5H-pyrrolo[3,4-d]pyrimidin-2-yl)phenyl)urea] | D (D >10 μM) | 0.1 to 1 | > 10 | > 10 | > 10 | 1 to 10 |  |
| C[C@H]1COCCN1c1nc(-c2ccc(NC(=O)NC3CC3)cc2)nc2c1CN(CC1CCNCC1)C2 [Example 130, (S)-1-cyclopropyl-3-(4-(4-(3-methylmorpholino)-6-(piperidin-4-ylmethyl)-6,7-dihydro-5H-pyrrolo[3,4-d]pyrimidin-2-yl)phenyl)urea] |  | < 0.1 | > 10 | > 10 | 1 to 10 | 1 to 10 | 1 to 10 |
| C[C@H]1COCCN1c1nc(-c2ccc(NC(=O)NC3CC3)cc2)nc2c1CN(C(=O)CCN1CCCC1=O)C2 [Example 132, (S)-1-cyclopropyl-3-(4-(4-(3-methylmorpholino)-6-(3-(2-oxopyrrolidin-1-yl)propanoyl)-6,7-dihydro-5H-pyrrolo[3,4-d]pyrimidin-2-yl)phenyl)urea] |  | < 0.1 | > 10 | > 10 | 1 to 10 | 1 to 10 | 1 to 10 |
